SMILES strings stand for the structures. Like-named read-outs stand apart in the source and are kept apart here.

Usually IC50 stands for the concentration that gives 50% inhibition. The EC50 is the midpoint of the concentration-response curve.

For experiment [1], the target named is T1, human Cot catalytic domain (30-397 amino acids) (Homo sapiens, UniProt P41279).
T1 construct: Purified recombinant human Cot catalytic domain (30-397 amino acids) was purchased from Cama Biosciences; purchased Cama Biosciences (so in the source)
Kind of experiment: High Throughput Cot Biochemical Assay (KinEASE TR-FRET). As to conditions: read-out: IC50 HTRF. In short, it runs like this:
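First, purified human Cot (aa 30-397) at 5 nM phosphorylates an XL665-labeled STK3 peptide (1 μM) at 400 μM ATP, pH 7.0, 0.1% DMSO. Then a europium-conjugated phospho-specific antibody binds the product, giving the TR-FRET signal.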
A general note: In TR-FRET formats the signal depends on donor and acceptor labels being close together.

Experiment [2] relates to TNFα production in LPS-stimulated human monocytes. Kind of experiment: Cot Monocyte TNFα Cell Based Assay. As to conditions: Homo sapiens, Monocyte, read-out: EC50 TNF. In short, it runs like this:
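5,000 cells/well; cmpd 1 h, 37 °C, 0.5% DMSO final; LPS 50 pg/ml, 4 h, 37 °C; media TNFα by HTRF sandwich (cryptate/XL665), RT overnight; % control vs unstimulated/stimulated wells.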

Setting [3] is: Cot KinEASE TR-FRET (HTRF) biochemical assay, 400 μM ATP.
[4] abbreviates: TNFα in LPS-stimulated human monocytes.
The mark [5] stands for this setting: Cot biochemical HTRF (KinEASE TR-FRET) assay.
Where [6] appears, read: Cot KinEASE TR-FRET, 400 μM ATP.
Setting [7] is: LPS-stimulated human monocytes, TNFα TR-FRET.

T1 sequence (P41279 30-397): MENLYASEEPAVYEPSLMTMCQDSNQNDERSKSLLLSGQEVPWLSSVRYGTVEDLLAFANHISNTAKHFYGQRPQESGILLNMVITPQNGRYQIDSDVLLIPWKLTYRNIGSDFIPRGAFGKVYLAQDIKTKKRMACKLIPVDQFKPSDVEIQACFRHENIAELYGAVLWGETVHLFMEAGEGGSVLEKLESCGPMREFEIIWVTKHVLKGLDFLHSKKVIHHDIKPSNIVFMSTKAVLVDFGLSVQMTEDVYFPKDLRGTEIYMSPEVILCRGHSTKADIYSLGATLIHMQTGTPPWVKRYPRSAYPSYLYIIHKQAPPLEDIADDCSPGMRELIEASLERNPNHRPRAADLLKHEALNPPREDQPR

Consider `CC(C)(C)CNc1c(C#N)cnc2c(Br)cc(N[C@@H](c3cccc(C(=O)N4CC(O)C4)c3)c3cn(C4CC4)nn3)cc12` [Example 52, (S)-8-bromo-6-(((1-cyclopropyl-1H-1,2,3-triazol-4-yl) (3-(3-hydroxyazetidine-1-carbonyl)phenyl)methyl)amino)-4-(neopentylamino) quinoline-3-carbonitrile], for which, in experiment [1] (setting [3]), the IC50 came to 4 nM. Moreover, in experiment [2] (setting [4]), the EC50 was above 1000 nM.
On to `[2H][C@@](Nc1cc(Cl)c2ncc(C#N)c(N[C@@H]3CCCC[C@@H]3NC(=O)OC(C)(C)C)c2c1)(c1ccc(F)cc1)c1cn(C2CC2)nn1` [Example 229, tert-butyl ((1S,2R)-2-((8-chloro-3-cyano-6-(((S)-(1-cyclopropyl-1H-1,2,3-triazo1-4-yl)(4-fluorophenyl)methyl-d)amino)quinolin-4-yl)amino)cyclohexyl) carbamate], for which the IC50 in experiment [1] (setting [3]) is 2610 nM. For the same compound, the EC50 in experiment [2] (setting [4]) is above 10000 nM.
Take `CC(C)(C)N1CCC(n2cc([C@@H](Nc3cc(Cl)c4ncc(C#N)c(N[C@@H]5CCCOC5)c4c3)c3ccccc3)nn2)CC1` [Example 540, 6-(((S)-(1-(1-(tert-butyl)piperidin-4-yl)-1H-1,2,3-triazol-4-yl)(phenyl)methyl)amino)-8-chloro-4-(((R)-tetrahydro-2H-pyran-3-yl)amino) quinoline-3-carbonitrile]: in experiment [1] (setting [5]), the half-inhibitory concentration (IC50) is 404 nM. Moreover, the EC50 in experiment [2] (setting [4]) is 5150 nM.
As for `[2H][C@@](Nc1cc(-c2cncnc2)c2ncc(C#N)c(N[C@H](CCC(=O)O)c3ccccc3)c2c1)(c1cn(C2CC2)nn1)c1ccccc1Cl` [Example 951, (R)-4-((6-(((S)-(2-chlorophenyl)(1-cyclopropyl-1H-1,2,3-triazol-4-yl)methyl-d)amino)-3-cyano-8-(pyrimidin-5-yl)quinolin-4-yl)amino)-4-phenylbutanoic acid], the IC50 in experiment [1] (setting [6]) was at least 10000 nM. The EC50 in experiment [2] (setting [7]) is at least 1000 nM.
On the same counts, the results for `Cc1c(-c2cncn2C)cccc1[C@H](Nc1cc(C#N)c2ncc(C#N)c(NCC(C)(C)C)c2c1)c1cn(C2(C(F)F)CC2)nn1` [Example 1154, (S)-6-(((1-(1-(difluoromethyl)cyclopropyl)-1H-1,2,3-triazol-4-yl)(2-methyl-3-(1-methyl-1H-imidazol-5-yl)phenyl)methyl)amino)-4-(neopentylamino)quinoline-3,8-dicarbonitrile] are 2 nM and 45 nM.
On to `N#Cc1cnc2c(Cl)cc(N[C@@H](c3ccccc3)c3cn(C4C5CNCC54)nn3)cc2c1Nc1ccc(F)c(Cl)c1` (stereo partly drawn) [Example 577, 6-(((1S)-(1-(3-azabicyclo[3.1.0]hexan-6-yl)-1H-1,2,3-triazo1-4-yl)(phenyl)methyl)amino)-8-chloro-4-((3-chloro-4-fluorophenyl)amino)quinoline-3-carbonitrile], for which the IC50 in experiment [1] (setting [5]) came out at 3 nM. For the same compound, the EC50 in experiment [2] (setting [4]) was 38 nM.
As for `[2H][C@](Nc1cc(-c2ccncc2)c2ncc(C#N)c(NCC(C)(C)C)c2c1)(c1ccc(F)cc1)c1cn(C2CC2)nn1` [Example 140, (S)-6-(((1-cyclopropyl-1H-1,2,3-triazol-4-yl)(4-fluorophenyl)methyl-d)amino)-4-(neopentylamino)-8-(pyridin-4-yl)quinoline-3-carbonitrile], in experiment [1] (setting [3]), the IC50 was 1500 nM. Further, the EC50 in experiment [2] (setting [4]) was above 10000 nM.
For the compound `CC(C)(C)N1CCC(n2cc([C@@H](Nc3cc(F)c4ncc(C#N)c(Nc5ccc(F)c(Cl)c5)c4c3)c3ccc(Cl)cc3)nn2)CC1` [Example 709, (S)-6-(((1-(1-(tert-butyl)piperidin-4-yl)-1H-1,2,3-triazol-4-yl)(4-chlorophenyl)methyl)amino)-4-((3-chloro-4-fluorophenyl)amino)-8-fluoroquinoline-3-carbonitrile], the IC50 in experiment [1] (setting [5]) came to 18 nM. Also, in experiment [2] (setting [4]), the EC50 was 307 nM.
Turning to `CC(C)(C)N1CCC(n2cc([C@@H](Nc3cc(Cl)c4ncc(C#N)c(N[C@@H]5CCOc6ccccc65)c4c3)c3ccccc3)nn2)CC1` [Example 506, 6-(((S)-(1-(1-(tert-butyl)piperidin-4-yl)-1H-1,2,3-triazol-4-yl)(phenyl)methyl)amino)-8-chloro-4-(((R)-chroman-4-yl)amino)quinoline-3-carbonitrile], the IC50 in experiment [1] (setting [5]) is 1690 nM. The EC50 in experiment [2] (setting [4]) came to 5290 nM.
On to `[2H]C(Nc1cc(F)c2ncc(C#N)c(NC(CC#N)c3ccccc3)c2c1)(c1ccc(F)cc1)c1cn(C2CC2)nn1` (stereo in doubt) [Example 286, 4-((2-cyano-1-phenylethyl)amino)-6-(((1-cyclopropyl-1H-1,2,3-triazol-4-yl)(4-fluorophenyl)methyl-d)amino)-8-fluoroquinoline-3-carbonitrile], for which the IC50 in experiment [1] (setting [3]) came to 7 nM. Besides, in experiment [2] (setting [4]), the EC50 turned out to be 127 nM.
With `[2H][C@](Nc1cc(Cl)c2ncc(C#N)c(NCC[Si](C)(C)C)c2c1)(c1ccc(F)cc1)c1cn(C2CC2)nn1` [Example 237, (S)-8-chloro-6-(((1-cyclopropyl-1H-1,2,3-triazol-4-yl)(4-fluorophenyl)methyl-d)amino)-4-((2-(trimethylsilyl)ethyl)amino) quinoline-3-carbonitrile], the IC50 in experiment [1] (setting [3]) worked out at 231 nM. Also, in experiment [2], the EC50 came out at 5120 nM.
With `Cc1c(-c2ccnnc2)cccc1[C@H](Nc1cc(C#N)c2ncc(C#N)c(NCC(C)(C)C)c2c1)c1cn(C2(C(F)(F)F)CC2)nn1` [Example 1134, (S)-6-(((2-methyl-3-(pyridazin-4-yl)phenyl)(1-(1-(trifluoromethyl)cyclopropyl)-1H-1,2,3-triazol-4-yl)methyl)amino)-4-(neopentylamino)quinoline-3,8-dicarbonitrile], in experiment [1] (setting [6]), the IC50 worked out at 2 nM. Also, the concentration for a half-maximal effect (EC50) in experiment [2] (setting [7]) was 57 nM.
On the same counts, the results for `CC(C)(C)CNc1c(C#N)cnc2c(Cl)cc(N[C@@H](c3cccc(-n4ccnc4)c3)c3cn(C4CC4)nn3)cc12` [Example 1032, (S)-6-(((3-(1H-imidazol-1-yl)phenyl)(1-cyclopropyl-1H-1,2,3-triazol-4-yl)methyl)amino)-8-chloro-4-(neopentylamino)quinoline-3-carbonitrile] are 1 nM and 161 nM.
On the same counts, the results for `CC[C@@H](Nc1c(C#N)cnc2c(C#N)cc(N[C@@H](c3cccc(C(N)=O)c3)c3cn(C4CC4)nn3)cc12)c1ccccc1` [Example 942, 3-((S)-(1-cyclopropyl-1H-1,2,3-triazol-4-yl) ((3,8-dicyano-4-(((R)-1-phenylpropyl)amino)quinolin-6-yl)amino)methyl)benzamide] are 1 nM and 141 nM.
Regarding `N#CCC[C@@H](Nc1c(C#N)cnc2c(Cl)cc(N[C@H](c3cn(CC(N)=O)nn3)c3ccccc3Cl)cc12)c1ccccc1` [Example 71, 2-(4-((S)-((8-chloro-3-cyano-4-(((R)-3-cyano-1-phenylpropyl)amino)quinolin-6-yl)amino) (2-chlorophenyl)methyl)-1H-1,2,3-triazol-1-yl) acetamide], in experiment [1] (setting [3]), the IC50 amounted to 4 nM. Also, the EC50 in experiment [2] (setting [4]) was determined as 657 nM.
For `CC[C@@H](Nc1c(C#N)cnc2c(Cl)cc(N[C@@H](c3ccc(F)cc3)c3cn(C4CCN(C(C)(C)C)CC4)nn3)cc12)c1ccccc1` [Example 538, 6-(((S)-(1-(1-(tert-butyl)piperidin-4-yl)-1H-1,2,3-triazol-4-yl)(4-fluorophenyl)methyl)amino)-8-chloro-4-(((R)-1-phenylpropyl)amino) quinoline-3-carbonitrile], the IC50 in experiment [1] (setting [5]) is 3 nM. Also, in experiment [2] (setting [4]), the EC50 was 58 nM.
For `CC(C)(C)N1CCC(n2cc([C@@H](Nc3cc(Cl)c4ncc(C#N)c(Nc5cncc(Cl)c5)c4c3)c3ccc(Cl)cc3)nn2)CC1` [Example 692, (S)-6-(((1-(1-(tert-butyl)piperidin-4-yl)-1H-1,2,3-triazol-4-yl)(4-chlorophenyl)methyl)amino)-8-chloro-4-((5-chloropyridin-3-yl)amino)quinoline-3-carbonitrile], in that order: 51 nM and 797 nM.
`[2H][C@@](Nc1cc(Cl)c2ncc(C#N)c(NCC(C)(C)C)c2c1)(c1cn(C2CC2)nn1)c1cccc(C#N)c1C` [Example 197, (S)-8-chloro-6-(((3-cyano-2-methylphenyl) (1-cyclopropyl-1H-1,2,3-triazol-4-yl)methyl-d)amino)-4-(neopentylamino) quinoline-3-carbonitrile]: in experiment [1] (setting [3]), the IC50 turned out to be 2 nM. In addition, in experiment [2] (setting [4]), the 50% effective concentration (EC50) came to 38 nM.
Regarding `Cc1c(C#N)cccc1[C@H](Nc1cc(Cl)c2ncc(C#N)c(NCC(C)(C)C(F)(F)F)c2c1)c1cn(C23CC(C2)C3)nn1` [Example 1107, (S)-6-(((1-(bicyclo[1.1.1]pentan-1-yl)-1H-1,2,3-triazol-4-yl)(3-cyano-2-methylphenyl)methyl)amino)-8-chloro-4-((3,3,3-trifluoro-2,2-dimethylpropyl)amino) quinoline-3-carbonitrile], in experiment [1] (setting [6]), the IC50 turned out to be 3 nM. Also, the EC50 in experiment [2] (setting [7]) is 65 nM.
As to `CC(C)(C)CNc1c(C#N)cnc2c(C#N)cc(N[C@@H](c3cccc(NS(C)(=O)=O)c3)c3cn(C4CC4)nn3)cc12` [Example 68, (S)-N-(3-((1-cyclopropyl-1H-1,2,3-triazol-4-yl)((3,8-dicyano-4-(neopentylamino)quinolin-6-yl)amino)methyl)phenyl)methanesulfonamide], the IC50 in experiment [1] (setting [3]) was 3 nM. Further, the EC50 in experiment [2] (setting [4]) is above 1000 nM.

These data come from patent publication US10316017B2, “COT modulators and methods of use thereof” (Gilead Sciences, Inc., priority 2015, dated 2019).
